Reference: patent US8642265B2, “Compositions and methods for the detection of topoisomerase II complexes with DNA” (The Children's Hospital of Philadelphia, priority 2004, dated 2014)

Key:
[1] = target: T1, DNA topoisomerase II cleavage complexes in K562 cells (Homo sapiens, UniProt P11388); test: Modified ICE bioassay in K562 cells; assay type: cell-based; settings: for induction of DNA topoisomerase II cleavage complexes: 20 μM
T1 construct: endogenous in cells; host or cells: K562 cells
Procedure: (§1) After flash-freezing and thawing at 37° C., the DNA was sheared by passage through a 251/2 G needle. […] The pellet was dissolved in 200 μl of 10 mM Tris-HCl (pH 8.0) 1 mM EDTA buffer, the DNA was quantified and 5.6 μg of DNA was analyzed on a Western blot with a mouse anti-human DNA topoisomerase IIα antibody (DAKO, Glostrup, Denmark) to detect DNA topoisomerase IIα-bound DNA (11).
(§2) However, doxorubicin is an intercalative DNA topoisomerase II poison that induces DNA topoisomerase II cleavage with different sequence site-selectivity (Capranico et al., 1990) and that also is associated with leukemia as a treatment complication, albeit less often (Sandoval et al., 1993).

[2] = target: T2, DNA topoisomerase II covalent complexes in KG1 cells (Homo sapiens, UniProt P11388); test: Modified ICE bioassay in KG1 cells; assay type: cell-based; settings: doxorubicin at 100 μM
T2 construct: endogenous in cells; host or cells: KG1 (KG-1) cells
T2 sequence (P11388 whole entry, one chain of several): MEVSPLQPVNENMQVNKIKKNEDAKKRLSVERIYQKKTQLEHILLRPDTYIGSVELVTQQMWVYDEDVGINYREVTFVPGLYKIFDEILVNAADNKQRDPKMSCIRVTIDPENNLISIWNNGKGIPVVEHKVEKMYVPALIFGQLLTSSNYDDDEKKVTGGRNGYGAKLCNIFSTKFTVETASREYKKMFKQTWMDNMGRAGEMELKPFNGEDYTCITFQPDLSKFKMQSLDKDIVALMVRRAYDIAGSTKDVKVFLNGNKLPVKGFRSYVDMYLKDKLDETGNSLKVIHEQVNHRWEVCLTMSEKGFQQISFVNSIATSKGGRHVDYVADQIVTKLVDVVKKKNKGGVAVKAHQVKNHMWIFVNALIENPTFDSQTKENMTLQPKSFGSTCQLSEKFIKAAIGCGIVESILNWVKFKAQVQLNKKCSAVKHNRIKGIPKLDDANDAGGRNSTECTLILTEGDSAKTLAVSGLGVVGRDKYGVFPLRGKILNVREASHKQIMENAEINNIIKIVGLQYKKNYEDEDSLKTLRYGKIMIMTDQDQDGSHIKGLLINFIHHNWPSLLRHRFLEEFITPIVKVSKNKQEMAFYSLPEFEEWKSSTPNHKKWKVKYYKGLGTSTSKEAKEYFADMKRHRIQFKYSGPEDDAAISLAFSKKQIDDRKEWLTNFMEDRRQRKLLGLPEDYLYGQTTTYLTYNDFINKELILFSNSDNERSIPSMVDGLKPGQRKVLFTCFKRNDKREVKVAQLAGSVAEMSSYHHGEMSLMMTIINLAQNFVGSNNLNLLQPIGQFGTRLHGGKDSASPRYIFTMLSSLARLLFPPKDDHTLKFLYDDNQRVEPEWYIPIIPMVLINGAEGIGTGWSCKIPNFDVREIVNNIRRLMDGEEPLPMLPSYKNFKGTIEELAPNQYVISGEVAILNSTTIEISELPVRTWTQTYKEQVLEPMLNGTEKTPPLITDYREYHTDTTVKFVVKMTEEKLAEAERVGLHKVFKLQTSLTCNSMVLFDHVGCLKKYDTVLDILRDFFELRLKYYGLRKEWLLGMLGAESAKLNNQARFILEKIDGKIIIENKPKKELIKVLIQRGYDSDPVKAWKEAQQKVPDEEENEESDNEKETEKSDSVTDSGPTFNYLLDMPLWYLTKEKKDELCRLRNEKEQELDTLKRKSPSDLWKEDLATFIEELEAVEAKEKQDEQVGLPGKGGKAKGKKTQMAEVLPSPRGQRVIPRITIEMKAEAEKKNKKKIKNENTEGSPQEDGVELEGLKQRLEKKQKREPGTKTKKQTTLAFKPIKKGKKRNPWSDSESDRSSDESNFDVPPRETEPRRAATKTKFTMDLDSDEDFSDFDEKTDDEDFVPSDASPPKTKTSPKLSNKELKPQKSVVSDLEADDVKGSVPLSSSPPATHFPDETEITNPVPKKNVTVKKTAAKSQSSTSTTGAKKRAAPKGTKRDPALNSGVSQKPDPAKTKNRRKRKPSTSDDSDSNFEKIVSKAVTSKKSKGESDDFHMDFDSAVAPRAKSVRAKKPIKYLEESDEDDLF
Procedure: The assays were performed on CEM cells (FIG. 7A), K562 cells (FIGS. 7B and 7C), and KG-1 cells (FIG. 7D).
as §1, §2

[3] = target: DNA topoisomerase II cleavage complexes in CEM cells (Homo sapiens, UniProt P11388); test: Modified ICE (in vivo complex of enzyme) bioassay in CEM cells; settings: 20 μM, 2 hours
DNA topoisomerase II cleavage complexes in CEM cells, sequence (P11388 whole entry, one chain of several): as above

[4] = target: human DNA topoisomerase IIα (Homo sapiens, UniProt P11388); test: DNA topoisomerase II in vitro cleavage assay; settings: for cleavage at MLL bcr position 6588 over cleavage without drug (enzyme-only): drug at 20 μM, 10 min 37° C.
human DNA topoisomerase IIα, sequence (P11388 whole entry): as the sequence (P11388 whole entry, one chain of several) above

[5] = target: T3, DNA topoisomerase II covalent complexes in ex vivo expanded CD34+ cells (Homo sapiens, UniProt P11388); test: Modified ICE bioassay in ex vivo expanded CD34+ cells; assay type: cell-based; settings: 2 hours, etoposide 100 μM
T3 construct: endogenous in cells; host or cells: primary human bone marrow CD34+ cells, expanded ex vivo
T3 sequence (P11388 whole entry, one chain of several): as above
Procedure: as §1

[6] = target: T4, DNA topoisomerase II cleavage complexes with the MLL bcr in CD34+ cells (Homo sapiens, UniProt P11388); test: MLL bcr oligonucleotide microarray (XEOCHIP) of DNA topoisomerase II-bound DNA; assay type: cell-based; settings: 100 μM, Q-Q plot
T4 construct: endogenous in cells; host or cells: primary human bone marrow CD34+ cells, expanded ex vivo
T4 sequence (P11388 whole entry, one chain of several): as above
Source text: Employing XEOCHIP™ technology (Xeotron, Houston, Tex.), a first generation MLL bcr oligonucleotide array containing replicate slots of each of 162 probes was created. The 162 probes included 73 probes for the non-repetitive MLL bcr sequences, 8 probes for the Alu region between nucleotide positions 663-1779 in the MLL bcr, 57 probes for MLL exon 25 which is unaffected by the translocations, and 24 probes for 9 bacterial control genes (see Tables 2 and 3; Tables 4 and 5 provide another example of a series of oligonucleotides that can be employed in a microarray). The 8.3 kb MLL bcr is represented by replicates of each of the 73 50 mers at average intervals of 115 bases to span the bcr. Because it has been well documented in the literature that the printing, general hybridization conditions, and scanning of microarrays introduce systemic effects that are related to the position on the chip, replicates of each of the probes in the array have been spaced throughout the chip.
Primary CD34+ selected human bone marrow cells were obtained through the NHLBI or purchased commercially. The cells were expanded ex vivo using conditions optimized to promote minimal differentiation in order to increase cell numbers as required to generate a useful model system.
DOP of the immunoaffinity-purified DNA topoisomerase II cleavage complexes from the treated and untreated cells was performed exactly as was done with the reference sample. […] Dye-swap experiments were also performed.
GeneSpring (Silicon Genetics, Redwood City, Calif.) was employed as a computational tool to visualize and analyze the data from MLL bcr XEOCHIPS™ with either treated or untreated samples in one channel and the reference sample in the other.
DOP-amplified DNA from the DNA topoisomerase II cleavage complexes in treated or untreated cells on separate chips was labeled with ALEXA FLUOR® 546. The MLL bcr reference sample was labeled with ALEXA FLUOR® 647. The null hypothesis represented by the straight line is that there is no effect at any probe, whereas upward departure points are potential hotspots and downward departure points are potential coldspots.

[7] = system: ex vivo expanded CD34+ cells; test: Cell viability by Trypan Blue exclusion; assay type: cell-based, human; settings: etoposide 2 hours, same for untreated
Procedure: as §1
Cell viability assessed by Trypan blue exclusion was ˜70% for both conditions. As predicted in proliferating cells (6), native DNA topoisomerase II covalent complexes were detected in the untreated cells. […] The DNA topoisomerase IIα protein ran higher than its known molecular weight of 170 kDa, which is consistent with the presence of DNA bound to the enzyme.

[8] = target: T5, DNA topoisomerase II covalent complexes with MLL and other sequences in CD34+ cells (Homo sapiens, UniProt P11388); test: Immunoaffinity purification, DOP amplification and real-time PCR of DNA topoisomerase IIα-bound DNA; assay type: cell-based
T5 construct: endogenous in cells; host or cells: primary human bone marrow CD34+ cells, expanded ex vivo
T5 sequence (P11388 whole entry, one chain of several): as above

[9] = 20 μM, additional 10 min at 75° C.

T1 sequence (P11388 whole entry, one chain of several): as above

SMILES	induction of DNA topoisomerase II cleavage complexes [1]	induction of DNA topoisomerase II covalent complexes [2]	induction of DNA topoisomerase II cleavage complexes [3]	cleavage at MLL bcr position 6588 over cleavage without drug (enzyme-only) ([4]; MLL intron 8 substrate) [fold]	cleavage at AF-4 intron 3 position 7126 relative to the strongest enzyme-only cleavage in the substrate (position 7114) ([4]; 20 μM, AF-4 intron 3 substrate) [fold]	rank in relative intensity of cleavage at AF-4 position 7126 among all cleavage sites ([4]; 20 μM, AF-4 intron 3 substrate)	formation of DNA topoisomerase II covalent complexes versus untreated cells [5]	potential coldspots for DNA topoisomerase II cleavage complexes (array probes), treated vs untreated [6]	potential hotspots for DNA topoisomerase II cleavage complexes (array probes), treated vs untreated [6]	also measured
COc1cccc2c1C(=O)c1c(O)c3c(c(O)c1C2=O)C[C@@](O)(C(=O)CO)C[C@@H]3O[C@H]1C[C@H](N)[C@H](O)[C@H](C)O1 [doxorubicin]	no induction	induced DNA II covalent complexes	no induction	0.4						cleavage over enzyme-only cleavage at MLL bcr positions 4675 and 4673 and GAS7 position 1238 ([4]; 0.01 μM): quantifiably enhanced cleavage; effect on cleavage at MLL bcr position 6588 over a range of concentrations ([4]; 0.01 μM to 0.5 μM): dose-dependent increases over enzyme-only cleavage; cleavage at MLL 4675, 4673 and GAS7 1238 at high concentration ([4]; 20 μM): complete diminution; cleavage at AF-4 intron 3 position 7126 ([4]; 20 μM or lower concentrations, AF-4 intron 3 substrate): no detectable cleavage; concentration at which cleavage at AF-4 positions 7111, 7114 and 7119 began to decrease ([4]; AF-4 intron 3 substrate): 0.5 µM; effect on cleavage at AF-4 intron 3 positions 7111, 7114 and 7119 over a range of concentrations ([4]; AF-4 intron 3 substrate): dose-dependent increases in cleavage stimulation over enzyme-only cleavage; concentration at which cleavage enhancement at MLL 4675, 4673 and GAS7 1238 began to decrease ([4]; MLL and GAS7 substrates): 0.1 µM; concentration at which cleavage enhancement at MLL bcr position 6588 began to decrease ([4]; MLL intron 8 substrate): 2.5 µM; effect on cleavage at MLL bcr positions 6587 and 6589 ([4]; all concentrations tested): only catalytic inhibition
COc1cc([C@@H]2c3cc4c(cc3[C@@H](O[C@@H]3O[C@@H]5CO[C@@H](C)O[C@H]5[C@H](O)[C@H]3O)[C@H]3COC(=O)[C@H]23)OCO4)cc(O)c1O [etoposide catechol]			significant induction	4.4	5.9	first	increased formation of topoisomerase-DNA cleavage complexes			amount of cleavage complexes induced compared with etoposide [3]: comparable in amount to the parent drug
COC1=CC(C2c3cc4c(cc3C(O[C@@H]3O[C@@H]5COC(C)O[C@H]5[C@H](O)[C@H]3O)C3COC(=O)C23)OCO4)=CC(=O)C1=O (stereo partly drawn) [etoposide quinone]	Induction of DNA cleavage complexes was also observed		significant induction	9.8	3.4	5th				concentration dependence of induction of DNA topoisomerase II cleavage complexes ([1]; 2 hours): concentration dependent increase; rank of cleavage at MLL bcr position 6588 among cleavage sites in the substrate ([4]; 20 μM, MLL intron 8 substrate): 3rd
COc1cc([C@@H]2c3cc4c(cc3[C@@H](O[C@@H]3O[C@@H]5CO[C@@H](C)O[C@H]5[C@H](O)[C@H]3O)[C@H]3COC(=O)[C@H]23)OCO4)cc(OC)c1O [etoposide]	Induction of DNA cleavage complexes was also observed	induced DNA II covalent complexes	significant induction	7.9			increased formation of DNA topoisomerase II covalent complexes	probes 2-28, 1-30, 1-18, and 1-15	probes 1-41 and 1-51	heat stability of cleavage at AF-4 intron 3 position 7126 [4, 9]: especially heat-stable; heat stability of cleavage complexes at MLL bcr position 6588 [4, 9]: remained detectable after heating; cell viability assessed by Trypan blue exclusion [7]: ~70%
O=c1c(-c2ccc(O)cc2)coc2cc(O)cc(O)c12 [genistein]								probes 1-31 (SEQ ID NO: 27), 2-50 (SEQ ID NO: 162), 1-74 (SEQ ID NO: 62), 2-28 (SEQ ID NO: 34), 1-10 (SEQ ID NO: 83), and 1-22 (SEQ ID NO: 71)	Probes 1-68 (SEQ ID NO: 157), 1-41 (SEQ ID NO: 49), 1-51 (SEQ ID NO: 141), and 1-33 (SEQ ID NO: 132)	real-time PCR products, MLL intron 7-exon 8 amplicon [8]: real-time PCR products that were detected
